Reference: BindingDB's records for doi:10.1111/j.1747-0285.2011.01215.x (Yeditepe University, 2011)

target: Sigma non-opioid intracellular receptor 1 (Cavia porcellus, UniProt Q60492); assay: Sigma 1 Assay; conditions: pH 7.4; 37 °C
Procedure: The test was performed with the radioligand [3H]-(+)-pentazocine (42.5 Ci/mmol) from Perkin Elmer.

Sigma non-opioid intracellular receptor 1, sequence (Q60492 whole entry): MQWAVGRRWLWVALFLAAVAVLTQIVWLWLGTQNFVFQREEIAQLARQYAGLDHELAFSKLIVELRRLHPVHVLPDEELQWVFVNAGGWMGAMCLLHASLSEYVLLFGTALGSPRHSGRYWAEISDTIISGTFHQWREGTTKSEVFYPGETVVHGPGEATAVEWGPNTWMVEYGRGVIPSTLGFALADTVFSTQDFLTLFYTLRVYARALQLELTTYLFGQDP

Structure (SMILES)	Ki [nM]
Cc1cn(CN2CCN(CCc3ccccc3)CC2)c2ccccc12 [1-{[4-(substitutedphenyl/phenylethyl)piperazin1-yl]methyl}-3-methyl-1 H-indole, 3b]	14.2
Cc1cn(CN2CCN(c3ccc(F)cc3)CC2)c2ccccc12 [1-{[4-(substitutedphenyl/phenylethyl)piperazin1-yl]methyl}-3-methyl-1 H-indole, 3a]	1000
Fc1ccc(F)c(CN2CCN(Cc3c[nH]c4ccccc34)CC2)c1 [3-{[4-(substitutedphenyl/benzyl)piperazin1-yl]methyl}-1 H-indole, 1b]	216
Fc1ccc(N2CCN(Cc3cn(CN4CCN(c5ccc(F)cc5)CC4)c4ccccc34)CC2)cc1 [1,3-di-{[4-(4-fluorophenyl)piperazin1-yl]methyl}-1 H-indole, 2a]	2690
Fc1ccc(N2CCN(CCCn3ccc4ccccc43)CC2)cc1 [1-{3-[4-(substitutedphenyl)piperazin1-yl]propyl}-1 H-indole, 4a]	456
Fc1ccc(N2CCN(Cc3c[nH]c4ccccc34)CC2)cc1 [3-[[4-(4-fluorophenyl)piperazin-1-yl]methyl]-1H-indole]	3640
c1ccc(N2CCN(CCCn3ccc4ccccc43)CC2)cc1 [1-{3-[4-(substitutedphenyl)piperazin1-yl]propyl}-1 H-indole, 4c]	1490
Clc1ccc(CN2CCN(Cc3c[nH]c4ccccc34)CC2)cc1Cl [3-{[4-(substitutedphenyl/benzyl)piperazin1-yl]methyl}-1 H-indole, 1c]	126
Fc1ccccc1N1CCN(CCCn2ccc3ccccc32)CC1 [1-{3-[4-(substitutedphenyl)piperazin1-yl]propyl}-1 H-indole, 4b]	264
